Laboratory results: patent US20240025884A1 (Dong-A ST Co., Ltd., priority 2022, published 2024)

Biological target: GCN2 (Homo sapiens (Human), UniProt Q9P2K8)
Experiment: GCN2 Biochemical Assay (TR-FRET, GFP-eIF2S1 substrate phosphorylation)
Settings: read-out: IC50 (GCN2 Inhibitory Activity)
Procedure, shortened: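 In-house GCN2 (1.6 nM 2× stock) phosphorylates GFP-eIF2S1 (50 nM 2× stock) with ATP (0.2 mM 2× stock) and tRNA, pH 7.5, 70 min at room temperature; 10-point 3.16-fold compound series. TR-FRET detection with Tb-anti-phospho antibody, 2–3 h, Ex 340/Em 490/520 nm; artifact plate spiked with phospho-substrate.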

Sequence of GCN2 (Q9P2K8 whole entry): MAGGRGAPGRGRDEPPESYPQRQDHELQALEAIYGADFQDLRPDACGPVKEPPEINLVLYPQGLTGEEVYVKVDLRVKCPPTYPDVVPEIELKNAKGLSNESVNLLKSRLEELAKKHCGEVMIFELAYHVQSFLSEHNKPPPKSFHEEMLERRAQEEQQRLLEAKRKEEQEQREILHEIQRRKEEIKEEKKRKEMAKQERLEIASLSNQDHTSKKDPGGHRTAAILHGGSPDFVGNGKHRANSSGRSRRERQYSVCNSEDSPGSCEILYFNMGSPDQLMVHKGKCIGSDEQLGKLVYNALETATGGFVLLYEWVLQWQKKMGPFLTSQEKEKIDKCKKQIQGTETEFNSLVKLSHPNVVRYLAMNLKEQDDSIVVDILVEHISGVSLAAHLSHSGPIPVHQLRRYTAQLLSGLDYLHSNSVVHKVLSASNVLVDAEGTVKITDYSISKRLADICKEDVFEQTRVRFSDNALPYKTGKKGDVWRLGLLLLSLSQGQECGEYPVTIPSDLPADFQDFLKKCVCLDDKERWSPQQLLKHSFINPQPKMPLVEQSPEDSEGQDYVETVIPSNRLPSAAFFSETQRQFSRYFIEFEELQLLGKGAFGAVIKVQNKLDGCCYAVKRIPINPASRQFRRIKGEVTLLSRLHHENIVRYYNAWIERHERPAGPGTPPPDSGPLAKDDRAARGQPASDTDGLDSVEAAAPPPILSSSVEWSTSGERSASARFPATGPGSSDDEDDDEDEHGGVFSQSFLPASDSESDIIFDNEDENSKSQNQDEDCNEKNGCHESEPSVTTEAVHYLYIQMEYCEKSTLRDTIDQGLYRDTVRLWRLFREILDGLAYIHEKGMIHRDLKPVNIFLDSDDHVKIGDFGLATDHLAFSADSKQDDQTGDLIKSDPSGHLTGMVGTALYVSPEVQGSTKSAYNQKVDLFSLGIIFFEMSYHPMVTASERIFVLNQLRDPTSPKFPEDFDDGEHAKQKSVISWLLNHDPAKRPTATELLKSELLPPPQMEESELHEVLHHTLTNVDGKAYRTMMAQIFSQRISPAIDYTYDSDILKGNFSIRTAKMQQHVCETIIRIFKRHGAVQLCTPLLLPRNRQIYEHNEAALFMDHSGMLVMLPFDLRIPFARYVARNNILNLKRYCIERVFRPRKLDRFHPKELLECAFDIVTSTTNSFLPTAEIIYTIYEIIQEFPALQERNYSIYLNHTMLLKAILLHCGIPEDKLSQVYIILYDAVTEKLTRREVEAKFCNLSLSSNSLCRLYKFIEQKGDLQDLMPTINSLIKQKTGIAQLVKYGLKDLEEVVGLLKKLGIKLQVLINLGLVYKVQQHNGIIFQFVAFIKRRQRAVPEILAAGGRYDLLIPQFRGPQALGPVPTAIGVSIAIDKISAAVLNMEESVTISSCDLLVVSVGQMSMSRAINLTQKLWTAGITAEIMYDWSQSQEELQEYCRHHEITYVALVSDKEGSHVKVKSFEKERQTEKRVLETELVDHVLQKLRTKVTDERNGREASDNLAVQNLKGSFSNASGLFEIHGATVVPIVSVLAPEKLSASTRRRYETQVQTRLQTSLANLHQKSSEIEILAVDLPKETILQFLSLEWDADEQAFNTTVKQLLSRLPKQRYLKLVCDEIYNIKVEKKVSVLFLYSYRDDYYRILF

`Cc1cnc(Nc2cc(C)n(C)n2)nc1-c1c[nH]c2c(NC(=O)CN3CC[C@H](Oc4nc(N)nc(N5CCCC5)n4)C3)cccc12` [Example 139, (S)-2-(3-((4-amino-6-(pyrrolidin-1-yl)-1,3,5-triazin-2-yl)oxy)pyrrolidin-1-yl)-N-(3-(2-((1,5-dimethyl-1H-pyrazol-3-yl)amino)-5-methylpyrimidin-4-yl)-1H-indol-7-yl)acetamide] and `Cc1cnc(Nc2cc(C)n(C)n2)nc1-c1c[nH]c2c(NC(=O)CN3CC[C@H](Oc4cc(N5CCCC5)ncn4)C3)cccc12` [Example 158, (S)-N-(3-(2-((1,5-dimethyl-1H-pyrazol-3-yl)amino)-5-methylpyrimidin-4-yl)-1H-indol-7-yl)-2-(3-((6-(pyrrolidin-1-yl)pyrimidin-4-yl)oxy)pyrrolidin-1-yl)acetamide] cannot be ordered by IC50: less than 10 nM for the first, less than 10 nM for the second.

`Cc1cnc(Nc2cc(C)n(C)n2)nc1-c1c[nH]c2c(NC(=O)CN3CC[C@H](Oc4cc(N)ncn4)C3)cccc12` [Example 140, (S)-2-(3-((6-aminopyrimidin-4-yl)oxy)pyrrolidin-1-yl)-N-(3-(2-((1,5-dimethyl-1H-pyrazol-3-yl)amino)-5-methylpyrimidin-4-yl)-1H-indol-7-yl)acetamide] and `CNc1cc(O[C@H]2CCN(CC(=O)Nc3cccc4c(-c5nc(Nc6cc(C)n(C)n6)ncc5C)c[nH]c34)C2)ncn1` [Example 141, (S)-N-(3-(2-((1,5-dimethyl-1H-pyrazol-3-yl)amino)-5-methylpyrimidin-4-yl)-1H-indol-7-yl)-2-(3-((6-(methylamino)pyrimidin-4-yl)oxy)pyrrolidin-1-yl)acetamide] cannot be ordered by IC50: less than 10 nM for the first, less than 10 nM for the second.

`CCNc1cc(O[C@H]2CCN(CC(=O)Nc3cccc4c(-c5nc(Nc6cc(C)n(C)n6)ncc5C)c[nH]c34)C2)ncn1` [Example 142, (S)-N-(3-(2-((1,5-dimethyl-1H-pyrazol-3-yl)amino)-5-methylpyrimidin-4-yl)-1H-indol-7-yl)-2-(3-((6-(ethylamino)pyrimidin-4-yl)oxy)pyrrolidin-1-yl)acetamide] and `CCCNc1cc(O[C@H]2CCN(CC(=O)Nc3cccc4c(-c5nc(Nc6cc(C)n(C)n6)ncc5C)c[nH]c34)C2)ncn1` [Example 143, (S)-N-(3-(2-((1,5-dimethyl-1H-pyrazol-3-yl)amino)-5-methylpyrimidin-4-yl)-1H-indol-7-yl)-2-(3-((6-(propylamino)pyrimidin-4-yl)oxy)pyrrolidin-1-yl)acetamide] cannot be ordered by IC50: less than 10 nM for the first, less than 10 nM for the second.

`CCCCNc1cc(O[C@H]2CCN(CC(=O)Nc3cccc4c(-c5nc(Nc6cc(C)n(C)n6)ncc5C)c[nH]c34)C2)ncn1` [Example 144, (S)-2-(3-((6-(butylamino)pyrimidin-4-yl)oxy)pyrrolidin-1-yl)-N-(3-(2-((1,5-dimethyl-1H-pyrazol-3-yl)amino)-5-methylpyrimidin-4-yl)-1H-indol-7-yl)acetamide] and `Cc1cnc(Nc2cc(C)n(C)n2)nc1-c1c[nH]c2c(NC(=O)CN3CC[C@H](Oc4cc(NCCCO)ncn4)C3)cccc12` [Example 146, (S)-N-(3-(2-((1,5-dimethyl-1H-pyrazol-3-yl)amino)-5-methylpyrimidin-4-yl)-1H-indol-7-yl)-2-(3-((6-((3-hydroxypropyl)amino)pyrimidin-4-yl)oxy)pyrrolidin-1-yl)acetamide] cannot be ordered by IC50: less than 10 nM for the first, less than 10 nM for the second.

`Cc1cnc(Nc2cc(C)n(C)n2)nc1-c1c[nH]c2c(NC(=O)CN3CC[C@H](Oc4cc(NCCO)ncn4)C3)cccc12` [Example 145, (S)-N-(3-(2-((1,5-dimethyl-1H-pyrazol-3-yl)amino)-5-methylpyrimidin-4-yl)-1H-indol-7-yl)-2-(3-((6-((2-hydroxyethyl)amino)pyrimidin-4-yl)oxy)pyrrolidin-1-yl)acetamide] and `COCCNc1cc(O[C@H]2CCN(CC(=O)Nc3cccc4c(-c5nc(Nc6cc(C)n(C)n6)ncc5C)c[nH]c34)C2)ncn1` [Example 147, (S)-N-(3-(2-((1,5-dimethyl-1H-pyrazol-3-yl)amino)-5-methylpyrimidin-4-yl)-1H-indol-7-yl)-2-(3-((6-((2-methoxyethyl)amino)pyrimidin-4-yl)oxy)pyrrolidin-1-yl)acetamide] cannot be ordered by IC50: less than 10 nM for the first, less than 10 nM for the second.

`Cc1cnc(Nc2cc(C)n(C)n2)nc1-c1c[nH]c2c(NC(=O)CN3CC[C@H](Oc4cc(NCCCN(C)C)ncn4)C3)cccc12` [Example 148, (S)-N-(3-(2-((1,5-dimethyl-1H-pyrazol-3-yl)amino)-5-methylpyrimidin-4-yl)-1H-indol-7-yl)-2-(3-((6-((3-(dimethylamino)propyl)amino)pyrimidin-4-yl)oxy)pyrrolidin-1-yl)acetamide] and `Cc1cnc(Nc2cc(C)n(C)n2)nc1-c1c[nH]c2c(NC(=O)CN3CC[C@H](Oc4cc(N(C)C)ncn4)C3)cccc12` [Example 153, (S)-N-(3-(2-((1,5-dimethyl-1H-pyrazol-3-yl)amino)-5-methylpyrimidin-4-yl)-1H-indol-7-yl)-2-(3-((6-(dimethylamino)pyrimidin-4-yl)oxy)pyrrolidin-1-yl)acetamide] cannot be ordered by IC50: less than 10 nM for the first, less than 10 nM for the second.

Compared with `Cc1cnc(Nc2cc(C)n(C)n2)nc1-c1c[nH]c2c(NC(=O)CN3CC[C@H](Oc4cc(NCc5ccccc5)ncn4)C3)cccc12` [Example 149, (S)-2-(3-((6-(benzylamino)pyrimidin-4-yl)oxy)pyrrolidin-1-yl)-N-(3-(2-((1,5-dimethyl-1H-pyrazol-3-yl)amino)-5-methylpyrimidin-4-yl)-1H-indol-7-yl)acetamide], `Cc1cnc(Nc2cc(C)n(C)n2)nc1-c1c[nH]c2c(NC(=O)CN3CC[C@H](Oc4cc(NCCc5ccccc5)ncn4)C3)cccc12` [Example 150, (S)-N-(3-(2-((1,5-dimethyl-1H-pyrazol-3-yl)amino)-5-methylpyrimidin-4-yl)-1H-indol-7-yl)-2-(3-((6-(phenethylamino)pyrimidin-4-yl)oxy)pyrrolidin-1-yl)acetamide] is higher in IC50: less than 10 nM for the first, 10 to 100 nM for the second. The first is the more potent here.

First: Cc1cnc(Nc2cc(C)n(C)n2)nc1-c1c[nH]c2c(NC(=O)CN3CC[C@H](Oc4cc(NC5CC5)ncn4)C3)cccc12 [Example 151, (S)-2-(3-((6-(cyclopropylamino)pyrimidin-4-yl)oxy)pyrrolidin-1-yl)-N-(3-(2-((1,5-dimethyl-1H-pyrazol-3-yl)amino)-5-methylpyrimidin-4-yl)-1H-indol-7-yl)acetamide]
Second: Cc1cnc(Nc2cc(C)n(C)n2)nc1-c1c[nH]c2c(NC(=O)CN3CC[C@H](Oc4cc(NC5CCCCC5)ncn4)C3)cccc12 [Example 152, (S)-2-(3-((6-(cyclohexylamino)pyrimidin-4-yl)oxy)pyrrolidin-1-yl)-N-(3-(2-((1,5-dimethyl-1H-pyrazol-3-yl)amino)-5-methylpyrimidin-4-yl)-1H-indol-7-yl)acetamide]
The IC50 of the first is lower: less than 10 nM for the first, 10 to 100 nM for the second.

First: CCN(C)c1cc(O[C@H]2CCN(CC(=O)Nc3cccc4c(-c5nc(Nc6cc(C)n(C)n6)ncc5C)c[nH]c34)C2)ncn1 [Example 154, (S)-N-(3-(2-((1,5-dimethyl-1H-pyrazol-3-yl)amino)-5-methylpyrimidin-4-yl)-1H-indol-7-yl)-2-(3-((6-(ethyl(methyl)amino)pyrimidin-4-yl)oxy)pyrrolidin-1-yl)acetamide]
Second: CCN(CC)c1cc(O[C@H]2CCN(CC(=O)Nc3cccc4c(-c5nc(Nc6cc(C)n(C)n6)ncc5C)c[nH]c34)C2)ncn1 [Example 155, (S)-2-(3-((6-(diethylamino)pyrimidin-4-yl)oxy)pyrrolidin-1-yl)-N-(3-(2-((1,5-dimethyl-1H-pyrazol-3-yl)amino)-5-methylpyrimidin-4-yl)-1H-indol-7-yl)acetamide]
The IC50 of the first is lower: less than 10 nM for the first, 10 to 100 nM for the second.

`CCCN(CC)c1cc(O[C@H]2CCN(CC(=O)Nc3cccc4c(-c5nc(Nc6cc(C)n(C)n6)ncc5C)c[nH]c34)C2)ncn1` [Example 156, (S)-N-(3-(2-((1,5-dimethyl-1H-pyrazol-3-yl)amino)-5-methylpyrimidin-4-yl)-1H-indol-7-yl)-2-(3-((6-(ethyl(propyl)amino)pyrimidin-4-yl)oxy)pyrrolidin-1-yl)acetamide] and `CCCCN(CC)c1cc(O[C@H]2CCN(CC(=O)Nc3cccc4c(-c5nc(Nc6cc(C)n(C)n6)ncc5C)c[nH]c34)C2)ncn1` [Example 157, (S)-2-(3-((6-(butyl(ethyl)amino)pyrimidin-4-yl)oxy)pyrrolidin-1-yl)-N-(3-(2-((1,5-dimethyl-1H-pyrazol-3-yl)amino)-5-methylpyrimidin-4-yl)-1H-indol-7-yl)acetamide] fall in the same range of IC50: 10 to 100 nM for the first, 10 to 100 nM for the second.

`Cc1cnc(Nc2cc(C)n(C)n2)nc1-c1c[nH]c2c(NC(=O)CN3CC[C@H](Oc4cc(N5CCC(O)C5)ncn4)C3)cccc12` (stereo partly drawn) [Example 159, N-(3-(2-((1,5-dimethyl-1H-pyrazol-3-yl)amino)-5-methylpyrimidin-4-yl)-1H-indol-7-yl)-2-((3S)-3-((6-(3-hydroxypyrrolidin-1-yl)pyrimidin-4-yl)oxy)pyrrolidin-1-yl)acetamide] and `Cc1cnc(Nc2cc(C)n(C)n2)nc1-c1c[nH]c2c(NC(=O)CN3CC[C@H](Oc4cc(N5CC[C@@H](O)C5)ncn4)C3)cccc12` [Example 160, N-(3-(2-((1,5-dimethyl-1H-pyrazol-3-yl)amino)-5-methylpyrimidin-4-yl)-1H-indol-7-yl)-2-((S)-3-((6-((R)-3-hydroxypyrrolidin-1-yl)pyrimidin-4-yl)oxy)pyrrolidin-1-yl)acetamide] cannot be ordered by IC50: less than 10 nM for the first, less than 10 nM for the second.

`Cc1cnc(Nc2cc(C)n(C)n2)nc1-c1c[nH]c2c(NC(=O)CN3CC[C@H](Oc4cc(N5CC[C@H](O)C5)ncn4)C3)cccc12` [Example 161, N-(3-(2-((1,5-dimethyl-1H-pyrazol-3-yl)amino)-5-methylpyrimidin-4-yl)-1H-indol-7-yl)-2-((S)-3-((6-((S)-3-hydroxypyrrolidin-1-yl)pyrimidin-4-yl)oxy)pyrrolidin-1-yl)acetamide] and `Cc1cnc(Nc2cc(C)n(C)n2)nc1-c1c[nH]c2c(NC(=O)CN3CC[C@H](Oc4cc(N5CCCCC5)ncn4)C3)cccc12` [Example 162, (S)-N-(3-(2-((1,5-dimethyl-1H-pyrazol-3-yl)amino)-5-methylpyrimidin-4-yl)-1H-indol-7-yl)-2-(3-((6-(piperidin-1-yl)pyrimidin-4-yl)oxy)pyrrolidin-1-yl)acetamide] cannot be ordered by IC50: less than 10 nM for the first, less than 10 nM for the second.
